Results reported in patent US12208130B2, “Treatment of women affected with polycystic ovary syndrome” (INSTITUT NATIONAL DE LA SANTE ET DE LA RECHERCHE MEDICALE …, priority 2017, dated 2025).
Where a SMILES comes first, the peptide text is derived from it. [ ]: non-standard residue; d: D form. dPhe(4-Cl) = N[C@H](Cc1ccc(Cl)cc1)C(=O)O; d2Nal = N[C@H](Cc1ccc2ccccc2c1)C(=O)O; dCit = NC(=O)NCCC[C@@H](N)C(=O)O; d3Pal = N[C@H](Cc1cccnc1)C(=O)O

System: PAMH mice
Assay: Postnatal GnRH antagonist treatment in PAMH mice: estrous cyclicity, ovaries, hormone levels
Format: in vivo, mouse
Protocol: FIG. 6A-6G. Postnatal GnRH antagonist treatment of PAMH mice restores the PCOS-like neuroendocrine phenotype. (FIG. 6A) Schematic of experimental design whereby vaginal cytology (estrous cyclicity) in PAMH adult (P60-P90, n=5) was analyzed for 12 days before and after postnatal intraperitoneal (i.p.) injections with 0.5 mg Kg^−1 cetrorelix acetate (PAMH+GnRH antag). Injections were administered every 2 days over 12 days and, on the first diestrus at the end of the treatment, trunk blood was collected for hormonal analysis. (FIG. 6B) Representation of estrous cyclicity of a female PAMH mouse before postnatal GnRH antagonist treatment (no treatment) and during postnatal GnRH antagonist treatment (PAMH+GnRH antag). Days of treatment are denoted by arrows. (FIG. 6C) Quantitative analysis of the % of completed estrous cycles in control (prenatal PBS-treated, n=19), PAMH (prenatal AMH-treated, n=19), and PAMH mice postnatally treated with GnRH antagonist (PAMH+GnRH antag, n=5). The horizontal line in each scatter plot corresponds to the median value. The vertical line represents the 25th-75th percentile range. Comparisons between treatment groups were performed using Kruskal-Wallis test followed by Dunn's post hoc analysis test (control vs PAMH ***P<0.0001; control vs PAMH+GnRH antag, P>0.999; PAMH vs PAMH+GnRH antag, *P=0.015). (FIG. 6D) Scatter plot representing the percentage (%) of time spent in each estrous cycle. The horizontal line in each scatter plot corresponds to the median value. The vertical line represents the 25th-75th percentile range. The percentage (%) of time spent in each estrous cycle was quantified in control, PAMH and PAMH+GnRH antag animals groups, as described above. Comparisons between treatment groups were performed using Kruskal-Wallis test followed by Dunn's post hoc analysis test (M/D: control vs PAMH ***P<0.0001; control vs PAMH+GnRH antag, P>0.999; PAMH vs PAMH+GnRH antag, *P=0.0051; E: control vs PAMH ***P<0.0001; control vs PAMH+GnRH antag, P>0.999; PAMH vs PAMH+GnRH antag, *P=0.014; P: control vs PAMH ***P<0.0001; control vs PAMH+GnRH antag, P>0.999; PAMH vs PAMH+GnRH antag, **P=0.0007). In FIG. 6D, (●): control; light grey point: PAMH; “○”: PAMH+GnRH antagonist. (FIG. 6E) Representative photomicrographs of ovaries from adult (P60-P90) control, PAMH and PAMH+GnRH antag mice. Ovary sections (5 μm thick) were stained with haematoxylin-eosin. (FIG. 6F) Mean T levels were measured in diestrus adult control (n=7), PAMH (n=5) and PAMH+GnRH antag (n=5) animals. Comparisons between treatment groups were performed using One-way ANOVA and Tukey's multiple comparisons post-hoc test, F (2,14)=29.24, ***P<0.0001. (FIG. 6G) Mean LH levels were measured in diestrus adult control (n=9), PAMH (n=10) and PAMH+GnRH antag (n=5) animals. Comparisons between treatment groups were performed using One-way ANOVA and Tukey's multiple comparisons post-hoc test, F(2,21)=65.78, ***P<0.0001. Abbreviations: M/D, Metestrus/Diestrus; E, Estrus; P, Proestrus; A, atretic follicles; CL, corpora lutea; AF, antral follcicles.
(FIG. 10A) Schematic of experimental design whereby vaginal cytology (estrous cyclicity) in PAMH adult mice (P90, n=6) was analyzed during 3 months, before and after postnatal intraperitoneal (i.p.) injections with 0.05, 0.5 and 5 mg/Kg Cetrorelix acetate. The Y axis refers to the different stages of the estrous cycle: Metaestrus/Diestrus (M/D), Estrus (E) and Proestrus (P). The X axis represents the time-course of the experiments (days). Animals were injected i.p. every second day, for 12 days, with Cetrorelix acetate at the dose of 0.05 and 0.5 mg/Kg, and every day with Cetrorelix acetate at the dose of 5 mg/Kg. Tail-blood samples were collected for LH measurements twice before the beginning of the treatments, and at day 2 and 6 of each treatment as well as 4 days after the last injection (no treatment), that followed each administration period. […]

[1] = 0.5 mg/Kg i.p. every second day for 12 days

Compound: CC(=O)N[C@H](Cc1ccc2ccccc2c1)C(=O)N[C@H](Cc1ccc(Cl)cc1)C(=O)N[C@H](Cc1cccnc1)C(=O)N[C@@H](CO)C(=O)N[C@@H](Cc1ccc(O)cc1)C(=O)N[C@H](CCCNC(N)=O)C(=O)N[C@@H](CC(C)C)C(=O)N[C@@H](CCCNC(=N)N)C(=O)N1CCC[C@H]1C(=O)N[C@H](C)C(N)=O [Cetrorelix acetate, Ac-D-2Nal-D-Phe(4-Cl)-D-3Pal-Ser-Tyr-D-Cit-Leu-Arg-Pro-D-Ala-NH2] (Ac-[d2Nal][dPhe(4-Cl)][d3Pal]SY[dCit]LRP[dA]-NH2)
- serum LH levels of PAMH mice (0.05 mg/Kg i.p. every second day): significantly more elevated than in Control animals
- LH pulsatility in PAMH animals (0.5 mg/Kg every second day, diestrus, end of treatment): normalized the LH pulsatility
- LH levels of PAMH mice [1]: normalized
- estrous cyclicity of PAMH mice [1]: restored
- T levels of PAMH mice (0.5 mg/Kg i.p. every second day for 12 days, diestrus): normalized
- ovarian morphology of PAMH mice (0.5 mg/Kg i.p. every two days for 12 days): restored
- ovulation in PAMH animals (0.5 mg/Kg injected every 48 hours): restored ovulation
- serum LH levels of PAMH mice (5 mg/Kg i.p. daily): significantly suppressed
- reversibility of effects on LH secretion (after discontinuation of treatment, independently of dose): reversible a few days after discontinuation of treatment
